Source: ChEMBL document CHEMBL1201861, “Genomics of Drug Sensitity in Cancer screening data, Wellcome Trust Sanger Institute”

Legend:
Assay in all cases: cells
Conditions in all cases: Homo sapiens
P30-OHK = assay type: functional, cell-based;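 note: growth inhibition of the P30-OHK cell line, read out with a cell viability assay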
Description: SANGER: Inhibition of human P30-OHK cell growth in a cell viability assay.

KGN = assay type: functional, cell-based;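 note: growth inhibition of KGN cells, read out with a cell viability assay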
Description: SANGER: Inhibition of human KGN cell growth in a cell viability assay.

ATN-1 = assay type: functional, cell-based;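 note: growth inhibition of human ATN-1 cells, read out with a cell viability assay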
Description: SANGER: Inhibition of human ATN-1 cell growth in a cell viability assay.

NCI-H526 = assay type: functional, cell-based;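 note: growth inhibition of the human NCI-H526 cell line, measured by a cell viability assay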
Description: SANGER: Inhibition of human NCI-H526 cell growth in a cell viability assay.

SJSA-1 = assay type: functional, cell-based;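 note: growth inhibition of human SJSA-1 cells, read out through a cell viability measurement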
Description: SANGER: Inhibition of human SJSA-1 cell growth in a cell viability assay.

SK-MEL-2 = assay type: functional, cell-based;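 note: growth inhibition of human SK-MEL-2 cells measured with a cell viability assay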
Description: SANGER: Inhibition of human SK-MEL-2 cell growth in a cell viability assay.

CAS-1 = assay type: functional, cell-based;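 note: growth inhibition of CAS-1 cells, measured with a cell viability assay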
Description: SANGER: Inhibition of human CAS-1 cell growth in a cell viability assay.

MN-60 = assay type: functional, cell-based;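 note: growth inhibition of the MN-60 cell line, determined with a cell viability assay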
Description: SANGER: Inhibition of human MN-60 cell growth in a cell viability assay.

EC-GI-10 = assay type: functional, cell-based
Description: SANGER: Inhibition of human EC-GI-10 cell growth in a cell viability assay.

EFO-21 = assay type: functional, cell-based;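 note: growth inhibition of EFO-21 cells measured with a viability assay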
Description: SANGER: Inhibition of human EFO-21 cell growth in a cell viability assay.

KYSE-410 = assay type: functional, cell-based;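 note: growth inhibition of KYSE-410 cells, measured through a cell viability readout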
Description: SANGER: Inhibition of human KYSE-410 cell growth in a cell viability assay.

PANC-08-13 = assay type: functional, cell-based;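 note: cell growth inhibition, measured with a cell viability assay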
Description: SANGER: Inhibition of human PANC-08-13 cell growth in a cell viability assay.

EW-11 = assay type: functional, cell-based;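 note: growth inhibition of human EW-11 cells, measured with a cell viability assay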
Description: SANGER: Inhibition of human EW-11 cell growth in a cell viability assay.

LU-139 = assay type: functional, cell-based
Description: SANGER: Inhibition of human LU-139 cell growth in a cell viability assay.

SK-MEL-1 = assay type: functional, cell-based;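 note: growth inhibition of human SK-MEL-1 cells, read out by a cell viability assay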
Description: SANGER: Inhibition of human SK-MEL-1 cell growth in a cell viability assay.

EFM-19 = assay type: functional, cell-based;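 note: growth inhibition of human EFM-19 cells, measured in a cell viability assay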
Description: SANGER: Inhibition of human EFM-19 cell growth in a cell viability assay.

KARPAS-299 = assay type: functional, cell-based
Description: SANGER: Inhibition of human KARPAS-299 cell growth in a cell viability assay.

GB-1 = assay type: functional, cell-based;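 note: growth of GB-1 cells judged by a viability assay, IC50 marks the concentration inhibiting growth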
Description: SANGER: Inhibition of human GB-1 cell growth in a cell viability assay.

RCC10RGB = assay type: functional, cell-based;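 note: growth inhibition of human RCC10RGB cells, read out by a cell viability assay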
Description: SANGER: Inhibition of human RCC10RGB cell growth in a cell viability assay.

OVCAR-4 = assay type: functional, cell-based;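 note: growth inhibition of human OVCAR-4 cells, measured with a cell viability assay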
Description: SANGER: Inhibition of human OVCAR-4 cell growth in a cell viability assay.

PSN1 = assay type: functional, cell-based;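 note: suppression of growth of human PSN1 cells, read out by a cell viability assay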
Description: SANGER: Inhibition of human PSN1 cell growth in a cell viability assay.

NCI-H69 = assay type: functional, cell-based;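 note: growth inhibition of the cell line, read out with a cell viability assay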
Description: SANGER: Inhibition of human NCI-H69 cell growth in a cell viability assay.

NCI-H1770 = assay type: functional, cell-based;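 note: growth inhibition of NCI-H1770 cells determined with a viability readout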
Description: SANGER: Inhibition of human NCI-H1770 cell growth in a cell viability assay.

HH = assay type: functional, cell-based
Description: SANGER: Inhibition of human HH cell growth in a cell viability assay.

LS-123 = assay type: functional, cell-based
Description: SANGER: Inhibition of human LS-123 cell growth in a cell viability assay.

A498 = assay type: functional, cell-based;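 note: growth inhibition of human A498 cells, read out with a cell viability assay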
Description: SANGER: Inhibition of human A498 cell growth in a cell viability assay.

SF-268 = assay type: functional, cell-based;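 note: growth inhibition of SF-268 cells determined with a cell viability assay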
Description: SANGER: Inhibition of human SF268 cell growth in a cell viability assay.

LB2241-RCC = assay type: functional, cell-based;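 note: cell viability assay measuring how strongly the cultured human renal carcinoma line is prevented from growing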
Description: SANGER: Inhibition of human LB2241-RCC cell growth in a cell viability assay.

NH-12 = assay type: functional, cell-based;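 note: growth inhibition of NH-12 cells, read out with a cell viability assay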
Description: SANGER: Inhibition of human NH-12 cell growth in a cell viability assay.

SK-N-FI = assay type: functional, cell-based;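 note: cell viability assay measuring growth inhibition of human SK-N-FI cells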
Description: SANGER: Inhibition of human SK-N-FI cell growth in a cell viability assay.

TGBC1TKB = assay type: functional, cell-based;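 note: growth inhibition of TGBC1TKB cells, read out by a cell viability assay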
Description: SANGER: Inhibition of human TGBC1TKB cell growth in a cell viability assay.

SH-4 = assay type: functional, cell-based;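 note: growth inhibition of SH-4 cells, read out with a cell viability assay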
Description: SANGER: Inhibition of human SH-4 cell growth in a cell viability assay.

NCI-H1355 = assay type: functional, cell-based;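 note: growth inhibition of human NCI-H1355 cells, read out by a cell viability assay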
Description: SANGER: Inhibition of human NCI-H1355 cell growth in a cell viability assay.

LAN-6 = assay type: functional, cell-based;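 note: growth inhibition of LAN-6 cells, determined with a cell viability assay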
Description: SANGER: Inhibition of human LAN-6 cell growth in a cell viability assay.

HEL = assay type: functional, cell-based;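 note: growth inhibition of HEL cells, read out with a cell viability assay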
Description: SANGER: Inhibition of human HEL cell growth in a cell viability assay.

NCI-H1092 = assay type: functional, cell-based;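 note: cell growth inhibition measured with a cell viability assay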
Description: SANGER: Inhibition of human NCI-H1092 cell growth in a cell viability assay.

M14 = assay type: functional, cell-based;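 note: growth inhibition of M14 cells, read out with a cell viability assay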
Description: SANGER: Inhibition of human M14 cell growth in a cell viability assay.

L-363 = assay type: functional, cell-based
Description: SANGER: Inhibition of human L-363 cell growth in a cell viability assay.

TE-1 = assay type: functional, cell-based
Description: SANGER: Inhibition of human TE-1 cell growth in a cell viability assay.

RXF 393 = assay type: functional, cell-based;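 note: growth inhibition of human RXF 393 cells, read out with a cell viability assay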
Description: SANGER: Inhibition of human RXF393 cell growth in a cell viability assay.

NCI-H1838 = assay type: functional, cell-based;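 note: growth inhibition of NCI-H1838 cells, determined with a cell viability readout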
Description: SANGER: Inhibition of human NCI-H1838 cell growth in a cell viability assay.

NCI-H446 = assay type: functional, cell-based;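 note: growth inhibition of NCI-H446 cells determined by a cell viability assay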
Description: SANGER: Inhibition of human NCI-H446 cell growth in a cell viability assay.

ES6 = assay type: functional, cell-based;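 note: growth inhibition of human ES6 cells, read out with a cell viability assay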
Description: SANGER: Inhibition of human ES6 cell growth in a cell viability assay.

SCH = assay type: functional, cell-based;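 note: growth inhibition of human SCH cells, read out in a cell viability assay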
Description: SANGER: Inhibition of human SCH cell growth in a cell viability assay.

KG-1 = assay type: functional, cell-based;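 note: growth inhibition of KG-1 cells, read out by a cell viability assay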
Description: SANGER: Inhibition of human KG-1 cell growth in a cell viability assay.

TE-11 = assay type: functional, cell-based;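 note: growth inhibition of human TE-11 cells, read out by a cell viability assay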
Description: SANGER: Inhibition of human TE-11 cell growth in a cell viability assay.

LU-134-A = assay type: functional, cell-based
Description: SANGER: Inhibition of human LU-134-A cell growth in a cell viability assay.

VM-CUB-1 = assay type: functional, cell-based;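 note: cell viability assay measuring growth inhibition of the human VM-CUB-1 cell line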
Description: SANGER: Inhibition of human VM-CUB-1 cell growth in a cell viability assay.

KURAMOCHI = assay type: functional, cell-based;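 note: growth inhibition of KURAMOCHI cells, read out with a cell viability assay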
Description: SANGER: Inhibition of human KURAMOCHI cell growth in a cell viability assay.

NCI-H630 = assay type: functional, cell-based;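 note: growth inhibition of NCI-H630 cells, read out with a cell viability assay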
Description: SANGER: Inhibition of human NCI-H630 cell growth in a cell viability assay.

NKM-1 = assay type: functional, cell-based;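 note: growth inhibition of NKM-1 cells, read out with a cell viability assay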
Description: SANGER: Inhibition of human NKM-1 cell growth in a cell viability assay.

Lu-65 = assay type: functional, cell-based;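 note: growth inhibition of Lu-65 cancer cells, read out by a cell viability assay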
Description: SANGER: Inhibition of human LU-65 cell growth in a cell viability assay.

LB2518-MEL = assay type: functional, cell-based;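 note: growth inhibition of human LB2518-MEL cells, measured with a cell viability assay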
Description: SANGER: Inhibition of human LB2518-MEL cell growth in a cell viability assay.

MV4-11 = assay type: functional, cell-based, MV-4-11;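 note: cell viability readout measuring growth inhibition of human MV-4-11 cells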
Description: SANGER: Inhibition of human MV-4-11 cell growth in a cell viability assay.

HuP-T4 = assay type: functional, cell-based;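 note: cell viability assay measuring how much HuP-T4 cell growth is inhibited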
Description: SANGER: Inhibition of human HuP-T4 cell growth in a cell viability assay.

EKVX = assay type: functional, cell-based;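 note: growth inhibition of human EKVX cells, read out with a cell viability assay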
Description: SANGER: Inhibition of human EKVX cell growth in a cell viability assay.

no-11 = assay type: functional, cell-based;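 note: growth inhibition of human NO-11 cells, read out with a cell viability assay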
Description: SANGER: Inhibition of human no-11 cell growth in a cell viability assay.

G-401 = assay type: functional, cell-based
Description: SANGER: Inhibition of human G-401 cell growth in a cell viability assay.

COLO-320-HSR = assay type: functional, cell-based
Description: SANGER: Inhibition of human COLO-320-HSR cell growth in a cell viability assay.

LU-99A = assay type: functional, cell-based
Description: SANGER: Inhibition of human LU-99A cell growth in a cell viability assay.

SW982 = assay type: functional, cell-based
Description: SANGER: Inhibition of human SW982 cell growth in a cell viability assay.

NCI-H23 = assay type: functional, cell-based
Description: SANGER: Inhibition of human NCI-H23 cell growth in a cell viability assay.

IST-MES1 = assay type: functional, cell-based
Description: SANGER: Inhibition of human IST-MES1 cell growth in a cell viability assay.

EW-13 = assay type: functional, cell-based
Description: SANGER: Inhibition of human EW-13 cell growth in a cell viability assay.

NCI-H720 = assay type: functional, cell-based
Description: SANGER: Inhibition of human NCI-H720 cell growth in a cell viability assay.

O=c1[nH]c2ccccc2n1C1CCN(Cc2ccc(-c3nc4cc5[nH]cnc5cc4nc3-c3ccccc3)cc2)CC1
IC50 (P30-OHK): > 2560 nM
IC50 (KGN): > 2560 nM
IC50 (ATN-1): > 2560 nM
IC50 (NCI-H526): > 2560 nM
IC50 (SJSA-1): > 2560 nM
IC50 (SK-MEL-2): > 2560 nM
IC50 (CAS-1): > 2560 nM
IC50 (MN-60): > 2560 nM
IC50 (EC-GI-10): > 2560 nM
IC50 (EFO-21): > 2560 nM
IC50 (KYSE-410): > 2560 nM
IC50 (PANC-08-13): > 2560 nM
IC50 (EW-11): > 2560 nM
IC50 (LU-139): > 2560 nM
IC50 (SK-MEL-1): > 2560 nM
IC50 (EFM-19): 564 nM
IC50 (KARPAS-299): > 2560 nM
IC50 (GB-1): > 2560 nM
IC50 (RCC10RGB): > 2560 nM
IC50 (OVCAR-4): > 2560 nM
IC50 (PSN1): > 2560 nM
IC50 (NCI-H69): > 2560 nM
IC50 (NCI-H1770): > 2560 nM
IC50 (HH): > 2560 nM
IC50 (LS-123): > 2560 nM
IC50 (A498): 1080 nM
IC50 (SF-268): > 2560 nM
IC50 (LB2241-RCC): > 2560 nM
IC50 (NH-12): 609 nM
IC50 (SK-N-FI): > 2560 nM
IC50 (TGBC1TKB): > 2560 nM
IC50 (SH-4): > 2560 nM
IC50 (NCI-H1355): > 2560 nM
IC50 (LAN-6): > 2560 nM
IC50 (HEL): > 2560 nM
IC50 (NCI-H1092): > 2560 nM
IC50 (M14): > 2560 nM
IC50 (L-363): > 2560 nM
IC50 (TE-1): > 2560 nM
IC50 (RXF 393): > 2560 nM
IC50 (NCI-H1838): > 2560 nM
IC50 (NCI-H446): > 2560 nM
IC50 (ES6): > 2560 nM
IC50 (SCH): > 2560 nM
IC50 (KG-1): > 2560 nM
IC50 (TE-11): > 2560 nM
IC50 (LU-134-A): > 2560 nM
IC50 (VM-CUB-1): > 2560 nM
IC50 (KURAMOCHI): 2310 nM
IC50 (NCI-H630): > 2560 nM
IC50 (NKM-1): > 2560 nM
IC50 (Lu-65): > 2560 nM
IC50 (LB2518-MEL): > 2560 nM
IC50 (MV4-11): > 2560 nM
IC50 (HuP-T4): > 2560 nM
IC50 (EKVX): > 2560 nM
IC50 (no-11): > 2560 nM
IC50 (G-401): > 2560 nM
IC50 (COLO-320-HSR): > 2560 nM
IC50 (LU-99A): > 2560 nM
IC50 (SW982): > 2560 nM
IC50 (NCI-H23): > 2560 nM
IC50 (IST-MES1): > 2560 nM
IC50 (EW-13): > 2560 nM
IC50 (NCI-H720): > 2560 nM

CC[C@]1(O)C[C@@H]2CN(CCc3c([nH]c4ccccc34)[C@@](C(=O)OC)(c3cc4c(cc3OC)N(C)[C@H]3[C@@](O)(C(=O)OC)[C@H](OC(C)=O)[C@]5(CC)C=CCN6CC[C@]43[C@@H]65)C2)C1 [VINBLASTINE]
IC50 (P30-OHK): 11.1 nM
IC50 (KGN): 33.3 nM
IC50 (ATN-1): 1.03 nM
IC50 (NCI-H526): 5.14 nM
IC50 (SJSA-1): 12.1 nM
IC50 (SK-MEL-2): 53.3 nM
IC50 (CAS-1): 93.1 nM
IC50 (MN-60): 29.4 nM
IC50 (EC-GI-10): 3.53 nM
IC50 (EFO-21): 44 nM
IC50 (KYSE-410): 9.3 nM
IC50 (PANC-08-13): 61.5 nM
IC50 (EW-11): 7.15 nM
IC50 (LU-139): 14.1 nM
IC50 (SK-MEL-1): 67.3 nM
IC50 (EFM-19): 5.24 nM
IC50 (KARPAS-299): > 100 nM
IC50 (GB-1): 39.8 nM
IC50 (RCC10RGB): > 100 nM
IC50 (OVCAR-4): 27.9 nM
IC50 (PSN1): 1.25 nM
IC50 (NCI-H69): > 100 nM
IC50 (NCI-H1770): 28.5 nM
IC50 (HH): 6.37 nM
IC50 (LS-123): 53.3 nM
IC50 (A498): 5.94 nM
IC50 (SF-268): 16.2 nM
IC50 (LB2241-RCC): 10.1 nM
IC50 (NH-12): 26.3 nM
IC50 (SK-N-FI): > 100 nM
IC50 (TGBC1TKB): 31.2 nM
IC50 (SH-4): 43.5 nM
IC50 (NCI-H1355): 19.5 nM
IC50 (LAN-6): 47.7 nM
IC50 (HEL): 32.8 nM
IC50 (NCI-H1092): > 100 nM
IC50 (M14): 3.19 nM
IC50 (L-363): 6 nM
IC50 (TE-1): 10.9 nM
IC50 (RXF 393): 1.44 nM
IC50 (NCI-H1838): > 100 nM
IC50 (NCI-H446): 2.12 nM
IC50 (ES6): > 100 nM
IC50 (SCH): 29.7 nM
IC50 (KG-1): 18.4 nM
IC50 (TE-11): 5.13 nM
IC50 (LU-134-A): 8.58 nM
IC50 (VM-CUB-1): 4.28 nM
IC50 (KURAMOCHI): > 100 nM
IC50 (NCI-H630): > 100 nM
IC50 (NKM-1): 1.27 nM
IC50 (Lu-65): > 100 nM
IC50 (LB2518-MEL): > 100 nM
IC50 (MV4-11): 2.81 nM
IC50 (HuP-T4): 43.2 nM
IC50 (EKVX): > 100 nM
IC50 (no-11): 38.8 nM
IC50 (G-401): 8.67 nM
IC50 (COLO-320-HSR): > 100 nM
IC50 (LU-99A): 20.8 nM
IC50 (SW982): 8.92 nM
IC50 (NCI-H23): 5.71 nM
IC50 (IST-MES1): 67.7 nM
IC50 (EW-13): 36.5 nM
IC50 (NCI-H720): 6.88 nM
